Measurements from patent US6355799B1, “Substituted benzene compounds, process for their preparation, and herbicidal and defoliant compositions containing them” (ISK Americas Incorporated, priority 1997, dated 2002).

Tests used:
Format in all cases: in vivo
[1] = test system: redroot pigweed (Amaranthus retroflexus, AMARE); experiment: Pre-emerge test, greenhouse herbicide activity screening; settings: pre-emerge, phytotoxicity rating 0-100 at 14 days after application
Summary of the method: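 Plants grown in 10 cm pots of sandy loam mix received acetone-dissolved compounds through a moving flat-fan nozzle. Doses ranged from 15 to 1000 g ai/ha. Pre-emerge pots were seeded one day earlier, post-emerge pots 8–21 days earlier. Fourteen days on, each pot was graded 0–100 for damage.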

[2] = test system: barnyardgrass (Echinochloa crus-galli, ECHCG); experiment: as above; settings: pre-emerge, phytotoxicity rating 0-100 at 14 days after application
Summary of the method: (§1)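 Visual ratings on a 0-100 scale (0 no damage, 100 all plants dead) were taken at 14 days after treatment. Rates of 15-1000 g ai/ha in acetone, 187 l/ha, were sprayed onto soil one day after planting (pre-emerge) or onto 2-3 leaf plants with 0.25% v/v surfactant (post-emerge).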

[3] = test system: green foxtail (Setaria viridis, SETVI); experiment: as above; settings: pre-emerge, phytotoxicity rating 0-100 at 14 days after application
Summary of the method: as §1

[4] = test system: ivyleaf morningglory (Ipomoea hederacea, IPOHE); experiment: as above; settings: pre-emerge, phytotoxicity rating 0-100 at 14 days after application
Summary of the method: as §1

[5] = test system: lambsquarters (Chenopodium album, CHEAL); experiment: as above; settings: pre-emerge, phytotoxicity rating 0-100 at 14 days after application
Summary of the method: as §1

[6] = test system: large crabgrass (Digitaria sanguinalis, DIGSA); experiment: as above; settings: pre-emerge, phytotoxicity rating 0-100 at 14 days after application
Summary of the method: as §1

[7] = test system: sicklepod (Cassia obtusifolia, CASOB); experiment: as above; settings: pre-emerge, phytotoxicity rating 0-100 at 14 days after application
Summary of the method: as §1

[8] = test system: velvetleaf (Abutilon theophrasti, ABUTH); experiment: as above; settings: pre-emerge, phytotoxicity rating 0-100 at 14 days after application
Summary of the method: as §1

[9] = test system: field corn (Zea mays L., var. Dekalb 535, CORN); experiment: Pre-emerge test, crop safety; settings: crop damage, pre-emerge, phytotoxicity rating 0-100 at 14 days after application
Summary of the method: (§2)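 Compounds in acetone were track-sprayed at 15-1000 g ai/ha (187 l/ha) on sandy loam pots: pre-emerge one day after seeding, post-emerge at 2-3 leaf stage with 0.25% v/v non-ionic surfactant. Phytotoxicity was rated 14 days later on a 0 (no damage) to 100 (complete death) scale.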

[10] = test system: upland rice (Oryza sp., var. Tebonnet, RICE); experiment: Pre-emerge test, crop safety; settings: crop damage, pre-emerge, phytotoxicity rating 0-100 at 14 days after application
Summary of the method: as §2

[11] = test system: barnyardgrass (Echinochloa crus-galli, ECHCG); experiment: Post-emerge test, greenhouse herbicide activity screening; settings: post-emerge, phytotoxicity rating 0-100 at 14 days after application
Summary of the method: (§3)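 Applied at 15–1000 g ai/ha from acetone in 187 l/ha spray volume. Post-emergence applications included 0.25% v/v non-ionic surfactant and reached plants sown 8–21 days before. Pre-emergence applications were incorporated by surface watering. Efficacy or crop damage was rated on a 0–100 scale after 14 days.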

[12] = test system: green foxtail (Setaria viridis, SETVI); experiment: as above; settings: post-emerge, phytotoxicity rating 0-100 at 14 days after application
Summary of the method: as §3

[13] = test system: ivyleaf morningglory (Ipomoea hederacea, IPOHE); experiment: as above; settings: post-emerge, phytotoxicity rating 0-100 at 14 days after application
Summary of the method: as §3

[14] = test system: johnsongrass (Sorghum halepense, SORHA); experiment: as above; settings: post-emerge, phytotoxicity rating 0-100 at 14 days after application
Summary of the method: as §3

[15] = test system: lambsquarters (Chenopodium album, CHEAL); experiment: as above; settings: post-emerge, phytotoxicity rating 0-100 at 14 days after application
Summary of the method: as §3

[16] = test system: large crabgrass (Digitaria sanguinalis, DIGSA); experiment: as above; settings: post-emerge, phytotoxicity rating 0-100 at 14 days after application
Summary of the method: as §3

[17] = test system: redroot pigweed (Amaranthus retroflexus, AMARE); experiment: as above; settings: post-emerge, phytotoxicity rating 0-100 at 14 days after application
Summary of the method: as §3

[18] = test system: sicklepod (Cassia obtusifolia, CASOB); experiment: as above; settings: post-emerge, phytotoxicity rating 0-100 at 14 days after application
Summary of the method: as §3

[19] = test system: velvetleaf (Abutilon theophrasti, ABUTH); experiment: as above; settings: post-emerge, phytotoxicity rating 0-100 at 14 days after application
Summary of the method: as §3

[20] = test system: field corn (Zea mays L., var. Dekalb 535, CORN); experiment: Post-emerge test, crop safety; settings: post-emerge, crop damage rating 0-100 at 14 days after application
Summary of the method: as §1

[21] = test system: upland rice (Oryza sp., var. Tebonnet, RICE); experiment: Post-emerge test, crop safety; settings: post-emerge, crop damage rating 0-100 at 14 days after application
Summary of the method: as §1

COc1cccc(COC(=O)Nc2c(C)c(Cl)cc(F)c2-n2c(=O)cc(C(F)(F)F)n(C)c2=O)c1 [4-65]
70: Post-emerge Herbicidal Activity ECHCG ([11]; 250 g ai/ha) | Post-emerge Herbicidal Activity SORHA ([14]; 63 g ai/ha) | Post-emerge Herbicidal Activity RICE ([21]; 63 g ai/ha)
80: Pre-emerge Herbicidal Activity ECHCG ([2]; rate 63 g ai/ha) | Pre-emerge Herbicidal Activity CASOB ([7]; rate 63 g ai/ha) | Post-emerge Herbicidal Activity SORHA ([14]; 250 g ai/ha) | Post-emerge Herbicidal Activity DIGSA ([16]; 250 g ai/ha) | Post-emerge Herbicidal Activity CORN ([20]; 63 g ai/ha) | Post-emerge Herbicidal Activity RICE ([21]; 250 g ai/ha)
55: Pre-emerge Herbicidal Activity CORN ([9]; rate 63 g ai/ha)
100: Pre-emerge Herbicidal Activity AMARE ([1]; rate 63 g ai/ha) | Pre-emerge Herbicidal Activity AMARE ([1]; rate 250 g ai/ha) | Pre-emerge Herbicidal Activity SETVI ([3]; rate 63 g ai/ha) | Pre-emerge Herbicidal Activity SETVI ([3]; rate 250 g ai/ha) | Pre-emerge Herbicidal Activity IPOHE ([4]; rate 250 g ai/ha) | Pre-emerge Herbicidal Activity CHEAL ([5]; rate 63 g ai/ha) | Pre-emerge Herbicidal Activity CHEAL ([5]; rate 250 g ai/ha) | Pre-emerge Herbicidal Activity DIGSA ([6]; rate 63 g ai/ha) | Pre-emerge Herbicidal Activity DIGSA ([6]; rate 250 g ai/ha) | Pre-emerge Herbicidal Activity ABUTH ([8]; rate 63 g ai/ha) | Pre-emerge Herbicidal Activity ABUTH ([8]; rate 250 g ai/ha) | Post-emerge Herbicidal Activity SETVI ([12]; 63 g ai/ha) | Post-emerge Herbicidal Activity SETVI ([12]; 250 g ai/ha) | Post-emerge Herbicidal Activity IPOHE ([13]; 63 g ai/ha) | Post-emerge Herbicidal Activity IPOHE ([13]; 250 g ai/ha) | Post-emerge Herbicidal Activity CHEAL ([15]; 63 g ai/ha) | Post-emerge Herbicidal Activity CHEAL ([15]; 250 g ai/ha) | Post-emerge Herbicidal Activity AMARE ([17]; 63 g ai/ha) | Post-emerge Herbicidal Activity AMARE ([17]; 250 g ai/ha) | Post-emerge Herbicidal Activity CASOB ([18]; 63 g ai/ha) | Post-emerge Herbicidal Activity CASOB ([18]; 250 g ai/ha) | Post-emerge Herbicidal Activity ABUTH ([19]; 63 g ai/ha) | Post-emerge Herbicidal Activity ABUTH ([19]; 250 g ai/ha)
75: Pre-emerge Herbicidal Activity CORN ([9]; rate 250 g ai/ha)
90: Pre-emerge Herbicidal Activity ECHCG ([2]; rate 250 g ai/ha) | Pre-emerge Herbicidal Activity IPOHE ([4]; rate 63 g ai/ha) | Pre-emerge Herbicidal Activity CASOB ([7]; rate 250 g ai/ha) | Pre-emerge Herbicidal Activity RICE ([10]; rate 250 g ai/ha) | Post-emerge Herbicidal Activity CORN ([20]; 250 g ai/ha)
60: Post-emerge Herbicidal Activity ECHCG ([11]; 63 g ai/ha) | Post-emerge Herbicidal Activity DIGSA ([16]; 63 g ai/ha)
65: Pre-emerge Herbicidal Activity RICE ([10]; rate 63 g ai/ha)

Cc1c(Cl)cc(F)c(-n2c(=O)cc(C(F)(F)F)n(C)c2=O)c1NC(=O)SCc1ccccc1 [4-66]
70: Pre-emerge Herbicidal Activity SETVI ([3]; rate 63 g ai/ha) | Pre-emerge Herbicidal Activity CASOB ([7]; rate 250 g ai/ha) | Post-emerge Herbicidal Activity RICE ([21]; 250 g ai/ha)
90: Pre-emerge Herbicidal Activity ECHCG ([2]; rate 250 g ai/ha) | Pre-emerge Herbicidal Activity IPOHE ([4]; rate 250 g ai/ha) | Post-emerge Herbicidal Activity CASOB ([18]; 250 g ai/ha)
20: Pre-emerge Herbicidal Activity RICE ([10]; rate 63 g ai/ha) | Post-emerge Herbicidal Activity CASOB ([18]; 63 g ai/ha)
0: Pre-emerge Herbicidal Activity CORN ([9]; rate 63 g ai/ha) | Post-emerge Herbicidal Activity ECHCG ([11]; 63 g ai/ha) | Post-emerge Herbicidal Activity SORHA ([14]; 63 g ai/ha)
40: Post-emerge Herbicidal Activity ECHCG ([11]; 250 g ai/ha)
65: Pre-emerge Herbicidal Activity RICE ([10]; rate 250 g ai/ha)
100: Pre-emerge Herbicidal Activity AMARE ([1]; rate 63 g ai/ha) | Pre-emerge Herbicidal Activity AMARE ([1]; rate 250 g ai/ha) | Pre-emerge Herbicidal Activity SETVI ([3]; rate 250 g ai/ha) | Pre-emerge Herbicidal Activity CHEAL ([5]; rate 63 g ai/ha) | Pre-emerge Herbicidal Activity CHEAL ([5]; rate 250 g ai/ha) | Pre-emerge Herbicidal Activity DIGSA ([6]; rate 250 g ai/ha) | Pre-emerge Herbicidal Activity ABUTH ([8]; rate 63 g ai/ha) | Pre-emerge Herbicidal Activity ABUTH ([8]; rate 250 g ai/ha) | Post-emerge Herbicidal Activity IPOHE ([13]; 63 g ai/ha) | Post-emerge Herbicidal Activity IPOHE ([13]; 250 g ai/ha) | Post-emerge Herbicidal Activity CHEAL ([15]; 250 g ai/ha) | Post-emerge Herbicidal Activity AMARE ([17]; 250 g ai/ha) | Post-emerge Herbicidal Activity ABUTH ([19]; 63 g ai/ha) | Post-emerge Herbicidal Activity ABUTH ([19]; 250 g ai/ha)
50: Pre-emerge Herbicidal Activity CORN ([9]; rate 250 g ai/ha) | Post-emerge Herbicidal Activity SORHA ([14]; 250 g ai/ha) | Post-emerge Herbicidal Activity DIGSA ([16]; 250 g ai/ha)
15: Post-emerge Herbicidal Activity CORN ([20]; 63 g ai/ha)
10: Post-emerge Herbicidal Activity SETVI ([12]; 63 g ai/ha) | Post-emerge Herbicidal Activity DIGSA ([16]; 63 g ai/ha)
30: Pre-emerge Herbicidal Activity ECHCG ([2]; rate 63 g ai/ha) | Pre-emerge Herbicidal Activity CASOB ([7]; rate 63 g ai/ha) | Post-emerge Herbicidal Activity RICE ([21]; 63 g ai/ha)
60: Pre-emerge Herbicidal Activity IPOHE ([4]; rate 63 g ai/ha) | Post-emerge Herbicidal Activity SETVI ([12]; 250 g ai/ha) | Post-emerge Herbicidal Activity CORN ([20]; 250 g ai/ha)
80: Pre-emerge Herbicidal Activity DIGSA ([6]; rate 63 g ai/ha) | Post-emerge Herbicidal Activity CHEAL ([15]; 63 g ai/ha) | Post-emerge Herbicidal Activity AMARE ([17]; 63 g ai/ha)
